Molecules are shown by their SMILES. “Also recorded” adds a separate entry of the source. Like-named read-outs stand apart in the source and are kept apart here.

In series [1] the test system is SARS-CoV-2. The experiment in a line: microbe, parasite or virus in culture. The series is classed as cell-based, SARS-CoV-2 (strain 2019-nCoV/USA_WA1/2020).
The nature of series [2]: Cytotoxicity. The series is classed as cell-based.
Series [3] concerns 3CLpro. To be noted: read-out: reported IC50; reported value, no reference given; cited from earlier work.
For series [4], the target named is SARS-CoV 3CLpro (Severe acute respiratory syndrome coronavirus, UniProt P0C6X7). The series is classed as biochemical.
In series [5] the test system is SARS-CoV. To be noted: cited from earlier work.
Setting [6] is: Severe acute respiratory syndrome coronavirus 2, 48 h.

By EC50 is commonly meant the midpoint of the concentration-response curve. For orientation: CC50 means the concentration giving 50% cytotoxicity. A higher CC50 goes with better tolerance by the cells. The molecule `Cl.NCCOc1ccc(Cl)cc1C(=O)NCC(=O)Nc1ccc([N+](=O)[O-])cc1Cl` [JMX0286, 2-(2-Aminoethoxy)-5-chloro-N-(2-((2-chloro-4-nitrophenyl)amino)-2-oxoethyl)benzamide hydrochloride] registered an EC50 in series [1] (setting [6]) of 2.25 µM. Further, it took 3.78 µM to reach half-maximal cytotoxicity in series [2] (CC50 at 48 h).

On to `CC(C)(C)NC(=O)N[C@H](C(=O)N1C[C@H]2[C@@H]([C@H]1C(=O)NC(CC1CCC1)C(=O)C(N)=O)C2(C)C)C(C)(C)C` (stereo partly drawn) [Boceprevir, boceprevir, reference compound], for which, in series [1] (Severe acute respiratory syndrome coronavirus 2, read-out: SARS-CoV-2 3CLpro EC50, Table 2, cell-based antiviral assay, SARS-CoV-2 viral replication), the EC50 amounted to 15.6 µM.

On to `CC(C)[C@H](NC(=O)c1cc(Cl)ccc1O)C(=O)Nc1ccc([N+](=O)[O-])cc1Cl` [JMX0281], for which the 50% effective concentration (EC50) in series [1] worked out at 2.08 µM.

Regarding `O=C(Nc1cc(C(F)(F)F)cc(C(F)(F)F)c1)c1cccc([N+](=O)[O-])c1O` [JMX0330, N-(3,5-Bis(trifluoromethyl)phenyl)-2-hydroxy-3-nitrobenzamide], the figures for the EC50 in series [1] (setting [6]) and in series [1] (listed as JMX0320) were 0.498 µM and “sub-micromolar”, respectively. In series [2], this molecule returned a CC50 at 48 h of 10.2 µM.

The IC50 is the concentration that inhibits the measured activity by half. Take `CC(C)(C)NC(=O)[C@@H](c1cccnc1)N(C(=O)c1ccco1)c1ccc(C(C)(C)C)cc1` [ML-188]: the IC50 in series [3] was ~2 µM.

`C[C@H](NC(=O)c1cc(Cl)ccc1O)C(=O)Nc1ccc([N+](=O)[O-])cc1Cl` [JMX0674] had an EC50 in series [1] of 9.75 µM.

`CC(C)C[C@H](NC(=O)c1cc(Cl)ccc1O)C(=O)Nc1ccc([N+](=O)[O-])cc1Cl` [JMX0671] registered a half-maximal effective concentration (EC50) in series [1] of 1.56 µM.

With `CC(C)[C@H](NC(=O)c1cc(Cl)ccc1O)C(=O)Nc1cc(C(F)(F)F)cc(C(F)(F)F)c1` [JMX0679], the EC50 in series [1] was 2.51 µM.

In the case of `O=C(Nc1ccc(F)c(F)c1)c1cc(Cl)ccc1O` [JMX0321], the EC50 in series [1] is 1.19 µM.

`CC(C)(C)OC(=O)NCCOc1ccc(Cl)cc1C(=O)NCC(=O)Nc1ccc([N+](=O)[O-])cc1Cl` [JMX0301, Tert-Butyl (2-(4-chloro-2-((2-((2-chloro-4-nitrophenyl)amino)-2-oxoethyl)carbamoyl)phenoxy)ethyl)carbamate]: the “SARS-CoV-2 3CLpro EC50” value in series [1] (Table 2, cell-based antiviral assay, SARS-CoV-2 viral replication) is reported as “No Dose response”.

Turning to `O=C(Nc1ccc(C(F)(F)F)cc1Cl)c1cccc([N+](=O)[O-])c1O` [JMX0310, N-(2-Chloro-4-(trifluoromethyl)phenyl)-2-hydroxy-3-nitrobenzamide], the EC50 in series [1] (setting [6]) was found to be 2.41 µM. Moreover, in series [2], the CC50 at 48 h was 10.1 µM.

In turn, `O=C(Nc1ccc([N+](=O)[O-])cc1Cl)c1cccc([N+](=O)[O-])c1O` [JMX0207] registered an EC50 in series [1] of 1.22 µM.

As for `O=C(Nc1cc(F)cc(C(F)(F)F)c1)c1cc(Cl)ccc1O` [JMX0312], a half-maximal effect in series [1] (EC50) was put at 1.13 µM.

Molecule `O=C(Nc1cc(F)cc(C(F)(F)F)c1)c1cccc([N+](=O)[O-])c1O` [JMX0317, N-(3-Fluoro-5-(trifluoromethyl)phenyl)-2-hydroxy-3-nitrobenzamide] gave an EC50 in series [1] (setting [6]) of 4.03 µM. Further, the half-maximal cytotoxic concentration (CC50) at 48 h in series [2] came to 11.7 µM.

The molecule `CCC(C)[C@H](NC(=O)c1cc(Cl)ccc1O)C(=O)Nc1ccc([N+](=O)[O-])cc1Cl` (stereo partly drawn) [JMX0673] yielded an EC50 in series [1] of 1.74 µM.

Regarding `CC(C)[C@H](NC(=O)c1cc(Cl)ccc1O)C(=O)Nc1cc(F)cc(C(F)(F)F)c1` [JMX0680], in series [1], a half-maximal response (EC50) required 4.57 µM.

`O=C(NC(Cc1ccccc1)C(=O)Nc1ccc([N+](=O)[O-])cc1Cl)c1cc(Cl)ccc1O` (stereo not drawn) [JMX0285] showed an EC50 in series [1] of 3.03 µM.

In the case of `O=C(Nc1ccc([N+](=O)[O-])cc1Cl)c1cc(Cl)ccc1O` [niclosamide], the “Inhibitory activity against SARS-CoV 3CLpro” value in series [4] was “does not inhibit; also recorded: no obvious inhibitory activity”. The “Concentration suppressing the cytopathic effect (CPE) of SARS-CoV” value in series [5] was 1 µM. Moreover, the EC50 in series [5] (read-out: EC50 of SARS-CoV replication) was < 0.1 µM.

In turn, `CC(C)[C@H](NC(=O)c1cc(Cl)ccc1O)C(=O)Nc1ccc(F)c(F)c1` [JMX0681] registered a half-maximal effective concentration (EC50) in series [1] of 9.75 µM.

`CC(C)[C@H](NC(=O)c1cc(Cl)ccc1O)C(=O)Nc1ccc(C(F)(F)F)cc1Cl` [JMX0672]: the EC50 in series [1] turned out to be 1.92 µM.

The record behind these values is paper PMC9272661 (Antiviral Research, 2022).
